The target of series [1] is T1, human LXRα (Homo sapiens, UniProt Q13133).
T1 construct: LXRα (A187-E447); expressed in transfected cells; host or cells: HG5LN (HeLa cells carrying the (GAL4RE)5-βGlob-Luc-SVNeo reporter)
T1 sequence (Q13133 187-447): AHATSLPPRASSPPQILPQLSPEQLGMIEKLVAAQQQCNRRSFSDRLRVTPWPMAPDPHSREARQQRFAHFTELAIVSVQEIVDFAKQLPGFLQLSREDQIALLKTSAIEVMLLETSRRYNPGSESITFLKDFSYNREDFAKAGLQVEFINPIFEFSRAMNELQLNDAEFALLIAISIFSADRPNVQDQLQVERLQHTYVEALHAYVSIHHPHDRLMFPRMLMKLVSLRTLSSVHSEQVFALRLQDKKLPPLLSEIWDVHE
Kind of series: HG5LN GAL4-LXRα reporter cell line, antagonist mode in presence of T0901317. It is filed as cell-based. The following applies: read-out: LXRα (T0901317 20 nM) IC50; in presence of T0901317 20 nM; NE = No effect. From the text: (§1) To construct GAL4-NR chimeras, individual LBDs of human FXR (R193-Q486), LXRα (A187-E447), LXRβ (G199-E461), CAR (M76-S348), and RORγ (S97-K518) were amplified by PCR with primers containing XhoI and SacI restriction sites (FXR), XhoI and BamHI (LXRs, CAR, RORγ) and inserted in pSG5-GAL4(DBD)-puromycin plasmid. To construct GAL4-CAR (+ APYLT) (M76-S353), the five amino acids APYLT were inserted by overlap extension PCR between amino acids P270 and D271 of CAR.
(§2) To characterize the specificity of chemicals for human FXR, LXRα, LXRβ, CAR and RORγ, we established in a similar manner HG5LN FXR, LXRα, LXRβ, CAR WT, CAR (APYLT) and RORγ reporter cell lines. […] These cells were stably transfected by pSG5-GAL4 (DBD)-NRs (LBD)-puromycin plasmid and selected in presence of 0.5 µg/ml puromycin. […] From each HG5LN NR cells, 5 to 10 clones were chosen for their ligand inducibility of luciferase expression. […] The most inducible clones were expanded and rechecked for inducibility and aliquots were frozen at different passages. One clone per receptor was maintained in culture and used for ligand screening. HG5LN cells were cultured in Dulbecco’s modified Eagle’s medium (DMEM): Nutrient Mixture F-12 (DMEM/F-12) containing phenol red and 1 g/l glucose and supplemented with 5% fetal bovine serum, 100 units/ml of penicillin, 100 µg/ml of streptomycin and 1 mg/ml geneticin, in 5% CO2 humidified atmosphere at 37°C. Stably transfected cell lines derived from HG5LN cells were cultured in the same culture medium supplemented with 0.5 µg/ml puromycin.
(§3) Individual reporter cell lines were seeded at a density of 40,000 cells per well in 96-well white opaque tissue culture plates (Greiner CellStar) in Dulbecco’s Modified Eagle Medium: Nutrient Mixture F-12 (DMEM/F-12) without phenol red and 1 g/l glucose and supplemented with 5% stripped fetal bovine serum, 100 units/ml of penicillin, 100 µg/ml of streptomycin (test medium). Chemicals to be tested were added 24h later, and cells were incubated at 37°C for 16h. Experiments were performed in quadruplicates. At the end of the incubation period, culture medium was replaced with test medium containing 0.3 mM luciferin solution. Luciferase activity was measured for 2s in intact living cells after 10 min stabilization using a Micro Beta Wallac luminometer (PerkinElmer). EC50 values were calculated using GraphPad Prism (GraphPad Software Inc).
(§4) Chemicals tested for agonism on FXR, LXRs, CAR (+ APYLT), PXR, and antagonism on CAR and RORγ were tested alone, without addition of any other ligand.
(§5) In the transactivation assay, each compound was tested at various concentrations in three independent experiments at least. For each experiment, tests were performed in quadruplicates for each concentration, and data are expressed by means values with standard deviations. Individual agonist dose–response curves, in the absence and presence of antagonist, were fitted using the sigmoid dose-response function of a graphics and statistics software program (GraphPad Prism, version 5.0). EC50 (effective concentration for half-maximal luciferase activity) and IC50 (half-maximal inhibitory concentration) values were calculated from equations used to fit the data in this graphic software. Transactivation data are presented as EC50 and IC50 values for each compound tested. To analyze significances, we compared individual compound treatments with controls using one-way analysis of variance (ANOVA) with the help of GraphPad Prism software.

The target in series [2] is T2, human RORγ (Homo sapiens, UniProt P51449).
T2 construct: RORγ (S97-K518); expressed in transfected cells; host or cells: HG5LN (HeLa cells carrying the (GAL4RE)5-βGlob-Luc-SVNeo reporter)
T2 sequence (P51449 97-518): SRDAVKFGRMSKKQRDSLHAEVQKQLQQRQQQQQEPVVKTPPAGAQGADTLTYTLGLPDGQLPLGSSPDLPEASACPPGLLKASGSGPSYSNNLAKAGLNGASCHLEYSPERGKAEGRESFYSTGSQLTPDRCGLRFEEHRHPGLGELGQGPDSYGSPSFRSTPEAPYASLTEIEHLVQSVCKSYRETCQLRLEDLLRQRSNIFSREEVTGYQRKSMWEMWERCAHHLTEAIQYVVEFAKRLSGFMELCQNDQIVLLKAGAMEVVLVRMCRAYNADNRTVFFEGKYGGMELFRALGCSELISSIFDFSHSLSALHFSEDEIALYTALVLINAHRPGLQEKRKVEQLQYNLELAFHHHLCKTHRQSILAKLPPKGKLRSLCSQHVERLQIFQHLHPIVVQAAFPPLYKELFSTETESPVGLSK
Nature of the series: HG5LN GAL4-RORγ reporter cell line, inhibition of constitutive activity. The following applies: inhibition of constitutive activity, tested alone; NE = No effect. It counts as cell-based.
Excerpt: as §1, §2, §3, §4, §5

Series [3] has as its target T3, human LXRβ (Homo sapiens, UniProt P55055).
T3 construct: LXRβ (G199-E461); expressed in transfected cells; host or cells: HG5LN (HeLa cells carrying the (GAL4RE)5-βGlob-Luc-SVNeo reporter)
T3 sequence (P55055 198-460 limits assumed): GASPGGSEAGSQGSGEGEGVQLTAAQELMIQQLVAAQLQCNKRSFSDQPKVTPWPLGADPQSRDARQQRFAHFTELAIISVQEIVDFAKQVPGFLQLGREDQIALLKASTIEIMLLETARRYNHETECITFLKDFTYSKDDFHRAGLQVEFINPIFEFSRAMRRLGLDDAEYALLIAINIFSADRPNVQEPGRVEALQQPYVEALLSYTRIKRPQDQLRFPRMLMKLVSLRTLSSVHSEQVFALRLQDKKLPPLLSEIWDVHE
Kind of series: HG5LN GAL4-LXRβ reporter cell line, antagonist mode in presence of T0901317. It is filed as cell-based. The following applies: read-out: LXRβ (T0901317 100 nM) IC50; in presence of T0901317 100 nM; NE = No effect.
Excerpt: as §1, §2, §3, §4, §5

Series [4] deals with T2, human RORγ. Nature of the series: HG5LN GAL4-RORγ reporter cell line, agonist mode in presence of SR2211. As to conditions: read-out: RORγ (SR2211 1 mM) EC50; in presence of SR2211 1 mM; NE = No effect. It counts as cell-based.
Excerpt: as §1, §2, §3, §4, §5

For series [5], the target named is T3, human LXRβ. Nature of the series: HG5LN GAL4-LXRβ reporter cell line, agonist mode. It is filed as cell-based. The following applies: HG5LN GAL4-LXRβ cells, tested alone; NE = No effect; read-out: LXRβ EC50.
Excerpt: as §1, §2, §3, §4, §5

Series [6] concerns the target T4, human PXR (Homo sapiens, UniProt O75469).
T4 construct: The GAL4-NR chimeric cell lines provide uniform cellular model differing just in receptor LBDs; expressed in transfected cells; host or cells: HG5LN PXR (HeLa-derived; described in Delfosse et al., 2015)
T4 sequence (O75469 146-433 limits assumed): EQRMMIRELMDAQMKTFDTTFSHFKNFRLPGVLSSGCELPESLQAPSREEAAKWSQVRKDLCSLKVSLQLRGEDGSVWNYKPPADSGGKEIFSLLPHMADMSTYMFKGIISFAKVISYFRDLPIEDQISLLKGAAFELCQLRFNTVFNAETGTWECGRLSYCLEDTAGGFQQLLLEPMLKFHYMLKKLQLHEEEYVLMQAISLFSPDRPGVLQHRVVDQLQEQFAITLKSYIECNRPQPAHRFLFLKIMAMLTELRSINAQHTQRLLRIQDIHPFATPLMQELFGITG
Nature of the series: HG5LN PXR reporter cell line, agonist mode. The following applies: NE = No effect; for EC50: HG5LN PXR cells, tested alone, read-out: PXR EC50. It counts as cell-based. The method, then: as §2, §3, §4, §5

In series [7] the target is T1, human LXRα. Kind of series: HG5LN GAL4-LXRα reporter cell line, agonist mode. It is filed as cell-based. As to conditions: HG5LN GAL4-LXRα cells, tested alone; NE = No effect; read-out: LXRα EC50.
Excerpt: as §1, §2, §3, §4, §5

Series [8] deals with T4, human PXR. Nature of the series: HG5LN PXR reporter cell line, antagonist mode in presence of SR12813. It counts as cell-based. As to conditions: read-out: PXR (SR12813 300 nM) IC50; in presence of SR12813 300 nM; NE = No effect. Here is the method:
as §2, §3, §4, §5

The target of the next series is T5, human CAR WT (Homo sapiens, UniProt Q14994).
T5 construct: CAR (M76-S348); expressed in transfected cells; host or cells: HG5LN (HeLa cells carrying the (GAL4RE)5-βGlob-Luc-SVNeo reporter)
T5 sequence (Q14994 76-348 isoform Q14994-2): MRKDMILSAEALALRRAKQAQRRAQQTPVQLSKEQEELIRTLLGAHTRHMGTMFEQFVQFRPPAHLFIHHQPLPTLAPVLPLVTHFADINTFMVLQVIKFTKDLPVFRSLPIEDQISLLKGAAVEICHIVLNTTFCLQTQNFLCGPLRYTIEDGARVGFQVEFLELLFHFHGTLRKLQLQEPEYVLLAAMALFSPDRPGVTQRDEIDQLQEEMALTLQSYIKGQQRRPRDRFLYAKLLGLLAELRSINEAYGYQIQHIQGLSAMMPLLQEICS
Nature of the series: HG5LN GAL4-CAR WT reporter cell line, inhibition of constitutive activity. It counts as cell-based. The following applies: inhibition of constitutive activity, tested alone; NE = No effect.
Excerpt: as §1, §2, §3, §4, §5

For another series, the target named is T6, human CAR (+ APYLT) (Homo sapiens, UniProt Q14994, INS270APYLT).
T6 construct: CAR (M76-S348); expressed in transfected cells; host or cells: HG5LN (HeLa cells carrying the (GAL4RE)5-βGlob-Luc-SVNeo reporter)
T6 sequence (Q14994 47-324 isoform Q14994-6): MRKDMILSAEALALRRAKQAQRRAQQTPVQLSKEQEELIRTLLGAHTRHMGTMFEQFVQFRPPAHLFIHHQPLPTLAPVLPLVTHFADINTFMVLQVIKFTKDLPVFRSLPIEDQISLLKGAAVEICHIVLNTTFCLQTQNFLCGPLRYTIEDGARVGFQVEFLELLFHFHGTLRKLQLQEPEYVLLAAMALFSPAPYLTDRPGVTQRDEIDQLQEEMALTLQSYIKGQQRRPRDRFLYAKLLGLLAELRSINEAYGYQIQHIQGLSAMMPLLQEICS
Nature of the series: HG5LN GAL4-CAR (+APYLT) reporter cell line, agonist mode. It counts as cell-based. The following applies: HG5LN CAR + APYLT cells, tested alone; NE = No effect.
Excerpt: as §1, §2, §3, §4, §5

In series [9] the test system is collagen-induced arthritis mouse model. More on the design: method as in Xue et al., 2016. The following applies: ref Xue et al., 2016; cited from earlier work.

`CCC(C)N(C)C(=O)c1cc2ccccc2c(-c2ccccc2Cl)n1` (stereo not drawn) [PK11195]: the half-maximal inhibitory concentration (IC50) at human LXRα [1], against human RORγ [2] and on human LXRβ [3] was over 10 µM in each case. For the same compound, the 50% effective concentration (EC50) at human RORγ [4] is over 10 µM; at human LXRβ [5], over 10 µM; at human PXR [6], 0.726 ± 0.056 µM; on human LXRα [7] it was over 10 µM. At human PXR [6] (maximal luciferase activity at 10^-5 M (10^-6 M *, 3 10^-6 M **), 100% = 3 µM SR12813, DMSO 19 ± 2), the “PXR % max act” value turned out to be 80%.

As to `OC(c1ccc(-c2ccc(CN3CCN(Cc4ccncc4)CC3)cc2)c(F)c1)(C(F)(F)F)C(F)(F)F` [SR2211], the half-maximal inhibitory concentration (IC50) on human LXRβ [3], at human PXR [8] and against human CAR WT was over 10 µM in each case. The EC50 at human LXRβ [5], on human CAR (+ APYLT) and on human PXR [6] was over 10 µM throughout. Moreover, in series [9], the Inflammation result is recorded as “inhibit inflammation”.
